How the values were obtained:
[1] = Dissociation constant, pKa of the compound; type: physicochemical
Plasma = settings: human
clinical = settings: human, in vivo

Compound | pKa [1] | fu (Plasma) | Vd (clinical)
COc1cccc(C2(O)CCCCC2CN(C)C)c1 (stereo unspecified) [TRAMADOL] | 8.3 | 0.96 | –
COC(=O)C1=C(C)NC(C)=C(C(=O)OCCN(C)Cc2ccccc2)C1c1cccc([N+](=O)[O-])c1 (stereo unspecified) [NICARDIPINE] | – | 0.05 | 0.98 L/kg
C[C@H]1O[C@@H](O[C@H]2[C@@H](O)C[C@H](O[C@H]3[C@@H](O)C[C@H](O[C@H]4CC[C@@]5(C)[C@H](CC[C@@H]6[C@@H]5C[C@@H](O)[C@]5(C)[C@@H](C7=CC(=O)OC7)CC[C@]65O)C4)O[C@@H]3C)O[C@@H]2C)C[C@H](O)[C@@H]1O [DIGOXIN] | – | – | 3.12 L/kg
COCCOC(=O)C1=C(C)NC(C)=C(C(=O)OC(C)C)C1c1cccc([N+](=O)[O-])c1 (stereo unspecified) [NIMODIPINE] | – | 0.05 | 1.5 L/kg
COc1ccc2c(c1)C(=O)N(CCc1ccc(S(=O)(=O)NC(=O)NC3CCCCC3)cc1)C(=O)C2(C)C [GLIQUIDONE] | 5 | 0.01 | 0.16 L/kg
C[C@]12C=CC(=O)C=C1CC[C@H]1[C@@H]3C[C@@H](O)[C@](O)(C(=O)CO)[C@@]3(C)C[C@H](O)[C@@]12F [TRIAMCINOLONE] | – | 0.32 | 1.76 L/kg
CCCNC(C)C(=O)Nc1ccccc1C (stereo unspecified) [PRILOCAINE] | 7.9 | 0.715 | –
C[C@]12C=CC(=O)C=C1CC[C@@H]1[C@@H]2C(=O)C[C@@]2(C)[C@H]1CC[C@]2(O)C(=O)CO [PREDNISONE] | – | 0.25 | –
COc1ccc2c3c1O[C@H]1[C@@H](O)C=C[C@H]4[C@@H](C2)N(C)CC[C@@]341 [CODEINE] | – | 0.93 | –
CCS(=O)(=O)CCn1c([N+](=O)[O-])cnc1C [TINIDAZOLE] | – | 0.88 | 0.7 L/kg
CCC(C)(C)C(=O)O[C@H]1C[C@@H](C)C=C2C=C[C@H](C)[C@H](CC[C@@H]3C[C@@H](O)CC(=O)O3)[C@H]21 [SIMVASTATIN] | – | – | 0.98 L/kg
Nc1ncnc2c1ncn2CCOCP(=O)(O)O [ADEFOVIR] | 1.3 | 0.895 | –
CCn1cc(C(=O)O)c(=O)c2cc(F)c(N3CCNCC3)cc21 [NORFLOXACIN] | 6.3 | 0.85 | 2.8 L/kg
COc1c(N2CCNC(C)C2)c(F)cc2c(=O)c(C(=O)O)cn(C3CC3)c12 (stereo unspecified) [GATIFLOXACIN] | 6 | – | 1.75 L/kg
CCCN1CCCC[C@H]1C(=O)Nc1c(C)cccc1C [ROPIVACAINE] | – | 0.06 | 0.55 L/kg
CN1C(=O)CN=C(c2ccccc2)c2cc(Cl)ccc21 [DIAZEPAM] | – | 0.02 | –
NS(=O)(=O)c1cc2c(cc1Cl)NCNS2(=O)=O [HYDROCHLOROTHIAZIDE] | – | 0.6 | 0.83 L/kg
O=C(O)Cc1ccccc1Nc1c(Cl)cccc1Cl [DICLOFENAC] | – | 0.01 | –
NS(=O)(=O)c1cc(C(=O)O)c(NCc2ccco2)cc1Cl [FUROSEMIDE] | – | 0.03 | –
Cc1ccc(S(=O)(=O)NC(=O)NN2CC3CCCC3C2)cc1 (stereo unspecified) [GLICLAZIDE] | 5.98 | 0.09 | 0.36 L/kg
CN1C(C(=O)Nc2ccccn2)=C(O)c2ccccc2S1(=O)=O [PIROXICAM] | – | 0.01 | 0.14 L/kg
CN1CC[C@]23c4c5ccc(O)c4O[C@H]2[C@@H](O)C=C[C@H]3[C@H]1C5 [MORPHINE] | – | 0.61 | –
CN[C@@H](C)[C@@H](O)c1ccccc1 [PSEUDOEPHEDRINE] | – | 1 | 2.84 L/kg
CC(=O)CC(c1ccccc1)c1c(O)c2ccccc2oc1=O (stereo unspecified) [WARFARIN] | – | 0.01 | 0.14 L/kg
C[C@H]1COc2c(N3CCN(C)CC3)c(F)cc3c(=O)c(C(=O)O)cn1c23.C[C@H]1COc2c(N3CCN(C)CC3)c(F)cc3c(=O)c(C(=O)O)cn1c23.O [LEVOFLOXACIN] | – | 0.69 | 1.36 L/kg
CCN1CCN(C(=O)N[C@@H](C(=O)N[C@@H]2C(=O)N3C(C(=O)O)=C(CSc4nnnn4C)CS[C@H]23)c2ccc(O)cc2)C(=O)C1=O [CEFOPERAZONE] | 2.6 | – | –
COC1=CC(=O)C[C@@H](C)[C@]12Oc1c(Cl)c(OC)cc(OC)c1C2=O [GRISEOFULVIN] | – | 0.16 | 1.5 L/kg

Compound | pKa [1] | fu (Plasma) | Vd (clinical)
Cc1c(OCC(F)(F)F)ccnc1C[S+]([O-])c1nc2ccccc2[nH]1 (stereo unspecified) [LANSOPRAZOLE] | – | 0.03 | 0.35 L/kg
O=C1NC(=O)C(c2ccccc2)(c2ccccc2)N1 [PHENYTOIN] | – | 0.1 | 0.64 L/kg
CCC1(CCC(C)C)C(=O)NC(=O)NC1=O [AMOBARBITAL] | – | – | 1.05 L/kg
CCn1cc(C(=O)O)c(=O)c2cc(F)c(N3CCNC(C)C3)c(F)c21 (stereo unspecified) [LOMEFLOXACIN] | 5.99 | 0.89 | 2.3 L/kg
CN/C(=N/CCSCc1nc[nH]c1C)NC#N [CIMETIDINE] | – | 0.81 | –
CN1CCc2cccc3c2[C@H]1Cc1ccc(O)c(O)c1-3 [APOMORPHINE] | – | 0.5 | 2 L/kg
O=C(N[C@H](CO)[C@H](O)c1ccc([N+](=O)[O-])cc1)C(Cl)Cl [CHLORAMPHENICOL] | – | 0.47 | –
CCCNCC(O)COc1ccccc1C(=O)CCc1ccccc1 (stereo unspecified) [PROPAFENONE] | – | 0.05 | –
Cn1c(=O)c2c(ncn2CC(O)CO)n(C)c1=O (stereo unspecified) [DYPHYLLINE] | – | 0.6 | 0.8 L/kg
Cc1ccccc1N1C(=O)c2cc(S(N)(=O)=O)c(Cl)cc2NC1C (stereo unspecified) [METOLAZONE] | 9.72 | – | 1.61 L/kg
O=C(O)c1ccccc1O [SALICYLIC ACID] | – | 0.05 | 0.17 L/kg
Cc1cnc(NC(=O)C2=C(O)c3ccccc3S(=O)(=O)N2C)s1 [MELOXICAM] | – | 0.006 | –
CCC1(c2ccccc2)C(=O)NC(=O)NC1=O [PHENOBARBITAL] | – | 0.5 | 0.63 L/kg
CC1(C)S[C@@H]2[C@H](NC(=O)Cc3ccccc3)C(=O)N2[C@H]1C(=O)O [PENICILLIN G] | – | 0.425 | –
CCN1CCCC1CNC(=O)c1cc(S(N)(=O)=O)ccc1OC (stereo unspecified) [SULPIRIDE] | – | 0.6 | 2.5 L/kg
CCCCNC(=O)NS(=O)(=O)c1ccc(C)cc1 [TOLBUTAMIDE] | – | – | 0.14 L/kg
NNC(=O)c1ccncc1 [ISONIAZID] | – | 1 | 0.67 L/kg
Nc1ccc(S(=O)(=O)Nc2ncccn2)cc1 [SULFADIAZINE] | – | 0.55 | 0.92 L/kg
C=CC1=C(C(=O)O)N2C(=O)[C@@H](NC(=O)/C(=N\OCC(=O)O)c3csc(N)n3)[C@H]2SC1 [CEFIXIME] | 2.1 | 0.33 | –
CN(C)C(=N)N=C(N)N [METFORMIN] | – | – | 2.45 L/kg
NC(=O)N1c2ccccc2C=Cc2ccccc21 [CARBAMAZEPINE] | – | 0.25 | 1.4 L/kg
CN(C)CCC=C1c2ccccc2CCc2ccccc21 [AMITRIPTYLINE] | – | 0.06 | –
COc1ccc2c(c1)c(CC(=O)O)c(C)n2C(=O)c1ccc(Cl)cc1 [INDOMETHACIN] | – | 0.1 | 0.1 L/kg
CCC[C@@H]1C[C@@H](C(=O)N[C@@H]([C@H]2O[C@H](SC)[C@H](O)[C@@H](O)[C@H]2O)[C@@H](C)O)N(C)C1 [LINCOMYCIN] | – | 0.28 | 1.3 L/kg
CCOC(=O)[C@H](CCc1ccccc1)N[C@@H](C)C(=O)N1CCC[C@H]1C(=O)O | – | 0.4 | 1.7 L/kg
CC(C)NCC(O)COc1ccc(CC(N)=O)cc1 (stereo unspecified) [ATENOLOL] | – | 0.91 | –
CC(=O)Nc1ccc(O)cc1 [ACETAMINOPHEN] | – | 1 | –

Compound | pKa [1] | fu (Plasma) | Vd (clinical)
C[C@]12C=CC(=O)C=C1CC[C@@H]1[C@@H]2[C@@H](O)C[C@@]2(C)[C@H]1CC[C@]2(O)C(=O)CO [PREDNISOLONE] | – | 0.075 | –
O=C(O)CCCc1ccc(N(CCCl)CCCl)cc1 [CHLORAMBUCIL] | – | – | 0.29 L/kg
COc1ccc2cc([C@H](C)C(=O)O)ccc2c1 [NAPROXEN] | – | 0.01 | –
NC(N)=Nc1nc(CSCCC(N)=NS(N)(=O)=O)cs1 [FAMOTIDINE] | – | 0.83 | –
CC[C@H](C)C(=O)O[C@H]1C[C@H](O)C=C2C=C[C@H](C)[C@H](CC[C@@H](O)C[C@@H](O)CC(=O)O)[C@H]21 [PRAVASTATIN] | 4.7 | 0.55 | –
CC(=O)Oc1ccccc1C(=O)O [ASPIRIN] | – | 0.3 | 0.15 L/kg
CC(C(=O)O)c1cccc(C(=O)c2ccccc2)c1 (stereo unspecified) [KETOPROFEN] | – | – | 0.15 L/kg
C[C@H]1[C@H](NC(=O)/C(=N\OC(C)(C)C(=O)O)c2csc(N)n2)C(=O)N1S(=O)(=O)O [AZTREONAM] | 2.75 | – | –
CC(C(=O)O)c1ccc(-c2ccccc2)c(F)c1 (stereo unspecified) [FLURBIPROFEN] | – | 0.01 | 0.12 L/kg
NC(=O)c1cnccn1 [PYRAZINAMIDE] | – | 0.9 | 0.7 L/kg
Cc1cc(=O)n(-c2ccccc2)n1C [ANTIPYRINE] | – | 0.87 | –
CC(CN1c2ccccc2Sc2ccccc21)N(C)C (stereo unspecified) [PROMETHAZINE] | – | 0.07 | –
COc1ccc(Cl)cc1C(=O)NCCc1ccc(S(=O)(=O)NC(=O)NC2CCCCC2)cc1 [GLYBURIDE] | – | 0.01 | 0.14 L/kg
Cc1nnc(SCC2=C(C(=O)O)N3C(=O)[C@@H](NC(=O)Cn4cnnn4)[C@H]3SC2)s1 [CEFAZOLIN] | 2.1 | – | –
CCOC(=O)C1(c2ccccc2)CCN(C)CC1 [MEPERIDINE] | 10.5 | 0.42 | –
CC(C)(C)NCC(O)c1ccc(O)c(CO)c1 (stereo unspecified) [ALBUTEROL] | – | 0.93 | –
CN(C)CCC=C1c2ccccc2COc2ccccc21 [DOXEPIN] | – | 0.17 | 11.7 L/kg
COc1cc(Cc2cnc(N)nc2N)cc(OC)c1OC [TRIMETHOPRIM] | – | 0.63 | –
Clc1cccc(Cl)c1N=C1NCCN1 [CLONIDINE] | – | 0.8 | –
CC(C)NCC(O)COc1cccc2ccccc12 (stereo unspecified) [PROPRANOLOL] | – | 0.1 | –
CO/N=C(\C(=O)N[C@@H]1C(=O)N2C(C(=O)O)=C(CSc3nc(=O)c(=O)[nH]n3C)CS[C@H]12)c1csc(N)n1 [CEFTRIAXONE] | 2.7 | 0.075 | –
C[C@]12CCC(=O)C=C1CC[C@@H]1[C@@H]2[C@@H](O)C[C@@]2(C)[C@H]1CC[C@]2(O)C(=O)CO [HYDROCORTISONE] | – | 0.09 | –
CN(C)CCC(c1ccc(Cl)cc1)c1ccccn1 (stereo unspecified) [CHLORPHENIRAMINE] | – | 0.3 | –
C[C@]12CC[C@@H]3c4ccc(O)cc4CC[C@H]3[C@@H]1CC[C@@H]2O [ESTRADIOL] | – | 0.015 | –
CC(=O)[C@@]1(O)CC[C@H]2[C@@H]3C[C@H](C)C4=CC(=O)CC[C@]4(C)[C@H]3CC[C@@]21C | – | 0.1 | 4.66 L/kg
